Experimental data published in patent EP4678639A1, “SALT OF BENZIMIDAZOLE DERIVATIVE” (JW Pharmaceutical Corporation, priority 2023, dated 2024).
Counter-ions that a name gives are not always drawn.

Key:
[1] = water
Experimental: (§1) The measurement was conducted according to the method described under "Solubility" in the General Notices of Appendix 1 of the 12th Edition of the Korean Pharmacopoeia. Each solubility was expressed by measuring the solubility of the acid addition salt itself, without conversion to the tegoprazan freebase.

[2] = Solid-state stress stability test (humidity 90 % RH); settings: for Initial (%) Degradant / Initial (%) Total Related substances: Table 9, initial; for Remarks: state of the solid
Experimental: (§2) Operation and Calculation: The blank solution, standard solution, and test solution were sequentially tested under the instrument operating conditions according to the liquid chromatography method in the General Test Methods of the 12th Edition of the Korean Pharmacopoeia, and the amount of related substances was calculated using the following equation. Amount of each related; substance (%) = (AT)/(AS) × (CS)/(CT) × (Molecular weight; of the sample)/(Molecular weight; of the standard; product) × P × (1)/(RR; F) [formula] AT = Area of each related substance peak obtained from the test solution AS = Area of the tegoprazan peak obtained from the standard solution CS = Concentration of standard solution (mg/mL) CT = Concentration of test solution (mg/mL) P = Purity/Assay/Potency (%) of standard product RRF = Relative response factor (1.0)
(§3) A solid-state stability comparative test was conducted on each of the above-mentioned prepared tegoprazan acid addition salts. The stability comparative test was conducted for 1 month under the conditions shown in Table 6 below in accordance with The International Council for Harmonisation of Technical Requirements for Pharmaceuticals for Human Use (ICH) guideline, and the purity of the acid addition salt, total related substances, and the content of degradants were measured by HPLC at the initial time point and after 1 month. Total related substances and degradants were measured according to the related substance test method (HPLC).
3) Stress Stability (humidity 90 % RH)

[3] = Solid-state stress stability test (temperature 60 °C); settings: for Change (%) Degradant: 1 month vs initial; for Initial (%) Degradant / Initial (%) Total Related substances: Table 8, initial
Experimental: as §2, §3
2) Stress Stability Test (temperature 60 °C)

[4] = Photostability test, visible light (1.2 Mlux·hr) exposure; settings: for Change (%) Degradant: Table 11, after exposure vs initial; for After (%) Degradant / After (%) Total Related substances: Table 11 under heading Visible Light (1.2 Mlux-hr) Exposure Test
Experimental: (§4) A photostability comparative test was conducted on each of the above-mentioned prepared tegoprazan acid addition salts. The test was conducted by exposing the sample to light with an energy of 200 W hr/m^2 of ultraviolet light and 1.2 Mlux hr of visible light in accordance with The International Council for Harmonisation of Technical Requirements for Pharmaceuticals for Human Use (ICH) guideline, with the samples packaged in a single PE bag and spread thinly enough to ensure exposure to the light source, taking humidity stability into consideration. The purity of the acid addition salts and the change in the amount of degradants at the initial time point and after exposure to ultraviolet light or visible light were measured by HPLC.

[5] = Photostability test, ultraviolet light (200 W·hr/m2) exposure; settings: for After Ultraviolet Light Exposure (200 W hr/m2)(%) Degradant / After Ultraviolet Light Exposure (200 W hr/m2)(%) Total Related substances: Table 10, UV 200 W·hr/m2, PE bag; for Change (%) Degradant: Table 10, after UV exposure vs initial; for Initial (%) Degradant / Initial (%) Total Related substances: Table 10, initial
Experimental: as §4

[6] = Solid-state accelerated stability test (40 ± 2 °C/RH 75 ± 5 %); settings: for Change (%) Degradant: 1 month vs initial; for Initial (%) Total Related substances / Initial (%) Degradant: Table 7, initial; for Initial (%) Degradant: degradant of Formula 4
Experimental: as §2, §3

[7] = Liquid stability comparative test (20 mg/mL in purified water, 40 °C, 24 hours, HPLC); type: physicochemical
Experimental: The analysis conditions are as follows.
Each sample was dissolved in purified water to prepare a solution with a concentration of 20 mg/mL, stored at an external temperature of 40 °C, and analyzed by HPLC at the initial time point and after 24 hours to measure purity, and the change in the generated degradant (Formula 4) was measured. The analysis of total related substances and degradants was performed by taking a liquid from a solution prepared at a concentration of 20 mg/mL, diluting it to a concentration of 4 mg/mL with the diluent of the related substance test method (HPLC), and measuring it as a test solution, and analyzing it according to the related substance test method (HPLC).

[8] = Raw material stability test versus tegoprazan freebase (60 °C or 90 % RH); type: physicochemical; settings: for change in appearance, 60 °C / change in appearance, 90 % RH: 3 weeks
[9] = Stability test by formulation (tablets and orally disintegrating tablets, 60 °C or 90 % RH); type: physicochemical; settings: tablets and orally disintegrating tablets prepared with the named salt, versus reference drug
Experimental: The amount of total related substances under stress storage conditions (temperature/humidity) was measured using liquid chromatography (HPLC) using an Infinity 1260 (Agilent) equipment. The analysis conditions are as follows.
To minimize the influence of additives, each test formulation was selected with the same additives as the reference drug (K-CAB tablets 50 mg, K-CAB orally disintegrating tablets 50 mg) disclosed in the Ministry of Food and Drug Safety Pharmaceutical Integrated Information System, and to minimize differences due to the granule manufacturing process, the formulation was prepared using the simple mixing (direct compression) method. Each formulation was as shown in Tables 16 and 17 below, and the stability conditions were conducted for each formulation under the storage conditions of 60 °C, which is a stress temperature condition, and 90 % RH, which is a stress humidity condition, respectively.
Stability tests were conducted under stress storage conditions (temperature/humidity) for each formulation. The results of measuring the amount of total related substances after storage under stress conditions for 1 week or 3 weeks are shown in FIG. 18 and FIG. 19.

[10] = in vivo; cited from earlier work
[11] = Solubility comparative test (Korean Pharmacopoeia 'Solubility'); settings: solubility of the acid addition salt itself, without conversion to freebase
Experimental: as §1

[12] = 40 ± 2 °C / RH 75 ± 5 %, 1 month
[13] = liquid stability, 40 °C, 24 hours

Cc1nc2c(O[C@H]3CCOc4cc(F)cc(F)c43)cc(C(=O)N(C)C)cc2[nH]1 [Hemisalicylate Salt]
solubility / aqueous solubility [1]: ≤ 1000 µg/mL | After 1 Month (%) Total Related substances ([2]; 90 % RH, 1 month): 1.759% | Initial (%) Degradant [2]: 0.001% | Initial (%) Total Related substances [2]: 0.208% | After 1 Month (%) Degradant ([3]; 60 °C, 1 month): 0.039% | After 1 Month (%) Total Related substances ([3]; 60 °C, 1 month): 0.268% | Change (%) Degradant ([3]; 60 °C): 0.038% | Initial (%) Degradant [3]: 0.001% | Initial (%) Total Related substances [3]: 0.208% | Change (%) Degradant [4]: 0.244% | Remarks ([4]; Table 11, after exposure, appearance): Discolorat ion | Initial (%) Degradant ([4]; Table 11, initial): 0.001% | Initial (%) Total Related substances ([4]; Table 11, initial): 0.208% | After (%) Degradant [4]: 0.245% | After (%) Total Related substances [4]: 1.021% | changes in appearance ([4]; visible light exposure): changes in appearance | After Ultraviolet Light Exposure (200 W hr/m2)(%) Degradant [5]: 0.360% | After Ultraviolet Light Exposure (200 W hr/m2)(%) Total Related substances [5]: 1.360% | Change (%) Degradant [5]: 0.359% | Remarks ([5]; Table 10, after UV exposure, appearance): Discolorat ion | Initial (%) Degradant [5]: 0.001% | Initial (%) Total Related substances [5]: 0.208% | changes in appearance ([5]; ultraviolet light exposure): changes in appearance | After 1 Month (%) Degradant [6, 12]: 0.004% | After 1 Month (%) Total Related substances [6, 12]: 0.208% | Change (%) Degradant ([6]; 40 ± 2 °C / RH 75 ± 5 %): 0.003% | Initial (%) Total Related substances [6]: 0.208% | Initial (%) Degradant [6]: 0.001% | purity change after 1 month ([6]; accelerated stability): ≤ 0.1%

Cc1nc2c(O[C@H]3CCOc4cc(F)cc(F)c43)cc(C(=O)N(C)C)cc2[nH]1 [Maleate Salt]
solubility / aqueous solubility [1]: ≤ 1000 µg/mL | absorb moisture and deliquesce / melted ([2]; 90 % RH): absorb moisture and deliquesce | Remarks ([2]; 90 % RH, 1 month): Melted | Initial (%) Degradant [2]: 0.027% | Initial (%) Total Related substances [2]: 0.357% | total related substances increased after 1 month ([3]; 60 °C): ≥ 5.0% | After 1 Month (%) Degradant ([3]; 60 °C, 1 month): 1.248% | After 1 Month (%) Total Related substances ([3]; 60 °C, 1 month): 6.070% | Change (%) Degradant ([3]; 60 °C): 1.221% | Initial (%) Degradant [3]: 0.027% | Initial (%) Total Related substances [3]: 0.357% | Change (%) Degradant [4]: 0.006% | Initial (%) Degradant ([4]; Table 11, initial): 0.027% | Initial (%) Total Related substances ([4]; Table 11, initial): 0.357% | After (%) Degradant [4]: 0.033% | After (%) Total Related substances [4]: 0.508% | After Ultraviolet Light Exposure (200 W hr/m2)(%) Degradant [5]: 0.032% | After Ultraviolet Light Exposure (200 W hr/m2)(%) Total Related substances [5]: 0.354% | Change (%) Degradant [5]: 0.005% | Initial (%) Degradant [5]: 0.027% | Initial (%) Total Related substances [5]: 0.357% | After 1 Month (%) Degradant [6, 12]: 0.083% | After 1 Month (%) Total Related substances [6, 12]: 0.679% | Change (%) Degradant ([6]; 40 ± 2 °C / RH 75 ± 5 %): 0.056% | Initial (%) Total Related substances [6]: 0.357% | Initial (%) Degradant [6]: 0.027% | increase in total related substances after 1 month ([6]; accelerated stability): ≥ 0.3%

Cc1nc2c(O[C@H]3CCOc4cc(F)cc(F)c43)cc(C(=O)N(C)C)cc2[nH]1 [Sulfate Salt]
After 24 hours Purity (%) ([7]; 20 mg/mL in purified water, 40 °C, 24 hours): 93.95% | Initial Purity (%) ([7]; 20 mg/mL in purified water, initial time point): 99.89% | After 24 hours Degradant (%) ([7]; degradant of Formula 4, 20 mg/mL in purified water, 40 °C, 24 hours): 5.414% | Initial Degradant (%) ([7]; degradant of Formula 4, 20 mg/mL in purified water, initial time point): 0.080% | Amount of Change Degradant (%) ([7]; initial vs after 24 hours at 40 °C): 5.33% | degradants formed after 24 hours of storage [7, 13]: ≥ 5% | purity decreased [7, 13]: about 6% | change in appearance, 60 °C [8]: Pungent odor | change in appearance, 90 % RH [8]: Pungent odor | change in appearance, Initial [8]: Pungent odor | amount of total related substances generated (FIG. 13) ([8]; stress temperature/humidity storage, compared to tegoprazan freebase): significantly increased | amount of total related substances generated (FIGS. 18 and 19) ([9]; 60 °C or 90 % RH, 1 or 3 weeks): significantly increased | degree of weight gain (FIG. 17) ([9]; 90 % RH, 3 weeks): greater | After 1 Month (%) Degradant ([2]; 90 % RH, 1 month): 14.500% | After 1 Month (%) Total Related substances ([2]; 90 % RH, 1 month): 16.637% | Change (%) Degradant ([2]; 90 % RH, 1 month vs initial): 14.161% | Remarks ([2]; 90 % RH, 1 month): Polymorp hic Transition | polymorphic transition (PXRD) ([2]; 90 % RH, after 1 month): polymorphic transition occurred | Initial (%) Degradant [2]: 0.339% | Initial (%) Total Related substances [2]: 0.609% | After 1 Month (%) Degradant ([3]; 60 °C, 1 month): 2.345% | After 1 Month (%) Total Related substances ([3]; 60 °C, 1 month): 3.441% | change in appearance, change in the color of the solid ([3]; 60 °C, 1 month): change in appearance | Change (%) Degradant ([3]; 60 °C): 2.006% | Remarks ([3]; 60 °C, 1 month, appearance): Discolorat ion | Initial (%) Degradant [3]: 0.339% | Initial (%) Total Related substances [3]: 0.609% | Change (%) Degradant [4]: 1.934% | Initial (%) Degradant ([4]; Table 11, initial): 0.339% | Initial (%) Purity ([4]; Table 11, initial): 99.3% | Initial (%) Total Related substances ([4]; Table 11, initial): 0.609% | After (%) Degradant [4]: 2.273% | After (%) Total Related substances [4]: 2.754% | After Ultraviolet Light Exposure (200 W hr/m2)(%) Degradant [5]: 1.415% | After Ultraviolet Light Exposure (200 W hr/m2)(%) Total Related substances [5]: 1.748% | Change (%) Degradant [5]: 1.076% | Initial (%) Degradant [5]: 0.339% | Initial (%) Total Related substances [5]: 0.609% | After 1 Month (%) Degradant [6, 12]: 0.712% | After 1 Month (%) Total Related substances [6, 12]: 1.197% | Change (%) Degradant ([6]; 40 ± 2 °C / RH 75 ± 5 %): 0.373% | Remarks ([6]; 40 ± 2 °C / RH 75 ± 5 %, 1 month, appearance): Discolorat ion | Initial (%) Total Related substances [6]: 0.609% | Initial (%) Degradant [6]: 0.339% | increase in total related substances after 1 month ([6]; accelerated stability): ≥ 0.3% | change in appearance of the solid ([6]; accelerated stability, 1 month): discoloration

Cc1nc2cc(C(=O)N(C)C)cc(O[C@H]3CCOc4cc(F)cc(F)c43)c2[nH]1 [Tegoprazan Freebase Crystalline Form A]
change in appearance, 60 °C [8]: No change in appearance | change in appearance, 90 % RH [8]: No change in appearance | change in appearance, Initial [8]: No change in appearance | Tmax delayed when administered after a meal compared to before a meal [10]: up to 8 hours | Solubility [11]: < 1000 µg/mL
